Assay results reported in patent US20210285940A1, “Improved Fluorescent Resonance Energy Transfer-Based Biosensor Proteins And Their Methods of Use Thereof” (Pebble Labs Inc., priority 2018, published 2021).
“And” between values parts separate entries of the source, which are not always exact repeats. Equal entries are not always repeated.

What was measured:
[1] = Prolonged storage of TqLPNG examined through size-exclusion chromatography; assay type: physicochemical
Procedure: FIG. 12: Accumulation of high order associates of TqLPNGh during its prolonged storage in the salt-free 50 mM HEPES (pH 7.5)/0.1 mM EDTA buffer at 4° C., examined through size-exclusion chromatography. The purified TqLPNG preparation (at ˜ 9 μM protein concentration) was stored at 4° C. in plain He buffer (containing 0.25 mM DTT and 0.25 mM TCEP) at 4° C. for about 3 weeks. 0.25 mL of the TqLPNGh solution was then mixed the equal volume of the appropriate buffer to get 0, 0.15 or 0.3 M NaCl final concentration. Following 1-2 hrs incubation (at 4° C.), the diluted protein was injected into Superdex 20010/300 column equlibrated with He, He+0.15 M NaCl or He+0.3 M NaCl buffer, respectively. The protein elution was detected through absorbance at 280 nm. The flow rate was 0.5 mL/min. The large overlapping peaks at 9-12 elution volume correspond to high order TqLPNG associates. Positions of peakes corresponding to TqLPNG dimer or monomer are marked with the arrows.
The reasonable question that follows deciphering the origin of the TqLPNG fluorescence emission response towards BAI-2 binding is to understand the optimal conditions for the biosensor-based determination of BAI-2 concentrations. Low NaCl conditions provide an increased change in acceptor-to-donor emission ratio for the BAI-2 binding favorable for accurate BAI-2 quantification. […] Thus, there should by a compromise between the binding amplitude of the observable signal (i.e., the decrease in the acceptor-to-donor emission ratio corresponding to fully saturated biosensor) and stability of the TqLPNG preparation (against the formation of high order associates).

[2] = TqLPNG fluorescence emission response towards BAI-2 binding at different NaCl concentrations; assay type: biochemical
Procedure: FIG. 8 (A-B): Response of the fluorescence emission spuctrum of TqLPNGh towards BAI-2 binding at different concentrations.of sodium chloride. Emission spectra (solid lines) were deconvoluted into the donor (dotted lines) and the acceptor (dashed lines) emission components, and the evaluation for the FRET efficiency (E values) was performed through enhancement in the acceptor emission referenced to the directly excited acceptor emission (the grey lines) as described under Materials and Methods. The spectra were recorded by using an excitation wavelength of 440 nm. Measurements were performed in a 50 mM HEPES (pH 7.5)/0.1 mM EDTA buffer (containing the specified amount of NaCl) with 50 nM TLPNGh.
FIG. 9: An example of fluorescence emission spectrum of TqLPNGh and its response to BAI-2 binding. (9A) Emisson spectra of 50 nM TqLPNGh in 50 mM HEPES (pH 7.5)/0.1 mM EDTA buffer in the absence (the grey line) and in the presence of 10 μM BAI-2 (the black line). The spectra were recorded by using a 440 nm excitation wavelength. (9B) Dependence of the BAI-2 binding TqLPNGh emission response (expressed as decrease in acceptor-to-donor emission ratio induced by BAI-2 binding) on concentration of NaCl.
TqLPNG fluorescence response towards BAI-2 binding was examined at different concentrations of NaCl (see FIG. 8). At any salt concentration, BAI-2 binding yielded an increase in the biosensor donor emission and the corresponding decrease in the acceptor emission, originated from the ligand-induced decrease in FRET between the donor and the acceptor chromophores. Indeed, for any salt concentration BAI-2 binding caused a decrease in FRET efficiency (follow the E-values in FIG. 8) and associated decrease in the acceptor-to-donor emission ratio. […] The observable BAI-2 binding amplitude was maximal at low salt buffer (−49%), strongly dropped at 0.15 M and became too small (for BAI-2 quantification applications) at 0.3 M and higher NaCl concentrations. […]
A Cary 300 spectrophotometer (Agilent/Varian Technologies) and FluoroMax fluorescence spectrophotometer (Horiba Scientific) equipped with Peltier-based temperature controlled cell holders were used for absorbance and fluorescence measurements, respectively. […] Fluorescence emission spectra were recorded in a 4 mm fluorescence cell by using 2 nm slit width at both excitation and emission monochromators. Typically, 50 nM protein concentrations were employed for fluorescence measurements. […]
FRET efficiency in TqLPNG was determined under variety of solution conditions by measurements of the emission spectra of TqLPNG (DA-species) alternatively excited at 440 nm and 505 nm. […]

[3] = Titration of TqLPNGh biosensor with BAI-2 monitored through acceptor-to-donor emission ratio; assay type: binding
Procedure: FIG. 13: Titration of TqLPNGh biosensor with autoinducer BAI-2 monitored through acceptor-to-donor emission ratio (A-to-D ratio). Measurements of TqLPNGh fluorescence emission spectra were performed in 50 mM HEPES (pH 7.5)/0.1 mM EDTA/0.4 mM boric acid//0.15 M NaCl buffer using 50 nM TqLPNGh. Emission spectra of TqLPNG were recorded by using 440 nm excitation. The values for the A-to-D ratio for the BIA-2 titration (the filled circles) were fitted to the phenomenological Hill equation to get BAI-2 concentration corresponding to the half decrease in A-to-D ratio (C50%). The values for A-to-D ratio corresponding to the control titration, i.e., titration of TqLPNGh with the ligand-free plain buffer, are shown as unfilled circles.
The values for D-to-A fluorescence ratio values BAI-2 concentration were plotted and then fitted with the phenomenological Hill equation or with the simple single site binding model. […] The presence of boric acid in the assay buffer (i.e., 50 mM HEPES (pH 7.5)/0.1 mM EDTA/0.15 M NaCl/0.4 mM boric acid) may be beneficial. Deficiency in boric acid may cause strong reduction in the apparent ligand affinity, yielding enhanced Kd-value and, therefore, a strong decrease in biosensor sensitivity.]
A Cary 300 spectrophotometer (Agilent/Varian Technologies) and FluoroMax fluorescence spectrophotometer (Horiba Scientific) equipped with Peltier-based temperature controlled cell holders were used for absorbance and fluorescence measurements, respectively. To characterize fluorescent proteins, all measurements (including TqLPNGh titration with BAI-2) were performed at 20° C. with proteins prepared in 50 mM HEPES buffer (pH 7.5)/0.1 mM EDTA, containing different NaCl concentrations. Fluorescence emission spectra were recorded in a 4 mm fluorescence cell by using 2 nm slit width at both excitation and emission monochromators. Typically, 50 nM protein concentrations were employed for fluorescence measurements. The protein stock solutions were prepared in 50 mM HEPES buffer (pH 7.5)/0.1 mM EDTA/0.3 M NaCl at 2 μM (for the TqLPNG) or 10 μM (for Tqh or NGh) concentration.

[4] = Control experiments for photo-bleaching; assay type: physicochemical; conditions: three consecutive spectrum records, 20° C.
Procedure: For measurements associated with examination of ligand-induced response of TqLPNG biosensor fluorescence emission 0.1 mM BAI-2 stock solution was freshly prepared and contained 1 mM DPD and 4 mM boric acid in 50 mM HEPES buffer (pH 7.5) (Semmelhack et al., 2005). To test the biosensor fluorescence response for BAI-2 binding 400 μL samples having the same biosensor concentration (50 nM) and variable BAI-2 concentrations in 50 mM HEPES (pH 7.5)/0.4 mM boric acid/0.1 mM EDTA/0.15 M NaCl were prepared from the protein and the ligand stock solutions using analytical balances. Fluorescence emission spectra were taken following 3 min temperature equilibration of the sample within the temperature controlled cell holder (set for 20° C.).

magnitude of decrease of the acceptor-to-donor emission ratio on BAI-2 titration ([2]; 50 mM HEPES (pH 7.5)/0.4 mM boric acid/0.1 mM EDTA, 0.15 M NaCl): ~17%
observable BAI-2 binding amplitude ([2]; 0.3 M and higher NaCl): too small
decrease in the acceptor to donor emission ratio upon autoinducer-2 binding ([2]; adjustable fluorescence response, maximum): up to 48%
observable BAI-2 binding amplitude (decrease in acceptor-to-donor emission ratio, fully saturated) ([2]; low salt buffer): −49%
EC50 ([3]; 50 nM TqLPNG, 50 mM HEPES (pH 7.5)/0.1 mM EDTA/0.15 M NaCl/0.4 mM boric acid, Hill equation fit, read-out: BAI-2 concentration corresponding to the half-transition (C50%) in emission response): 24 ± 1 nM
Kd ([3]; 50 nM TqLPNG, 50 mM HEPES (pH 7.5)/0.1 mM EDTA/0.15 M NaCl/0.4 mM boric acid, single site binding model, read-out: BAI-2•TqLPNG dissociation constant (Kd)): 9 nM and 10 nM and ~10 nM
Substance: TqLPNG: tripartite FRET biosensor fusion mTurquoise2-(24-365)LuxP-mNeonGreen; TqLPNGh carries C-terminal His6 tag (SEQ ID NO. 2), SEQ ID NO. 3 lacks it
stability against formation of high order associates ([1]; 0.3 M NaCl, prolonged storage at 4° C.): no formation of ‘inactive’ high-order associates
stability against formation of high order associates ([1]; HEPES (pH 7.5) buffer containing 0.15 M NaCl): good stability
stability against formation of high order associates ([1]; prolonged storage in low salt buffer, 4° C.): accumulation of high-order TqLPNG associates
higher sensitivity towards BAI-2 concentration as compared to mCLPY biosensor ([3]; from dissociation constants 10 nM versus 270 nM): more than 10 fold
changes in the fluorescence spectrum (photo-bleaching control) [4]: no changes
